This note sets out measurements from ChEMBL document CHEMBL1201862, “PubChem BioAssay data set” (2004).

Active and inactive are the calls of the source.

Experiment [1] is described as follows: Luminescence-based counterscreen assay for KLF5 inhibitors: dose response cell-based high throughput screening assay to identify cytotoxic compounds using the IEC-6 intestinal epithelial cell line. [Related pubchem assays: 1700 (Primary screen.), 1834 (Confirmation screen.), 1858 (Summary AID.), 1905 (Counterscreen.)]. The experiment is classed as functional. (The purpose of a counterscreen is to sort out artefacts and off-target activity.)

Experiment [2] deals with T1, Carboxy-terminal domain RNA polymerase II polypeptide A small phosphatase 1 (Homo sapiens, UniProt Q9GZU7).
T1 sequence (Q9GZU7 whole entry): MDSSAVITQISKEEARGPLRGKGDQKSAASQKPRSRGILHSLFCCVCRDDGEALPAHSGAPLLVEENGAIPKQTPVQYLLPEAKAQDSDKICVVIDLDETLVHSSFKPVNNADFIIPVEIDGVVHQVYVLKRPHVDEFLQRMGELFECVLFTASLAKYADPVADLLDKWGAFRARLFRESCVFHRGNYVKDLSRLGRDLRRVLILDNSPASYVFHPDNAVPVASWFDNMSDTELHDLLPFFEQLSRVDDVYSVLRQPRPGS
As to the kind of experiment: inhibitors of CTDSP1, concentration-response testing, biochemical assay, absorbance-based, actives from ultra-high-throughput screening (AID 540297). It is filed as functional.

The target of the next experiment is NS3 (Hepatitis C virus, UniProt A3EZJ3). As to the kind of experiment: PubChem AID 2173. On the set-up: species or system Hepacivirus hominis.
NS3, sequence (A3EZJ3 whole entry): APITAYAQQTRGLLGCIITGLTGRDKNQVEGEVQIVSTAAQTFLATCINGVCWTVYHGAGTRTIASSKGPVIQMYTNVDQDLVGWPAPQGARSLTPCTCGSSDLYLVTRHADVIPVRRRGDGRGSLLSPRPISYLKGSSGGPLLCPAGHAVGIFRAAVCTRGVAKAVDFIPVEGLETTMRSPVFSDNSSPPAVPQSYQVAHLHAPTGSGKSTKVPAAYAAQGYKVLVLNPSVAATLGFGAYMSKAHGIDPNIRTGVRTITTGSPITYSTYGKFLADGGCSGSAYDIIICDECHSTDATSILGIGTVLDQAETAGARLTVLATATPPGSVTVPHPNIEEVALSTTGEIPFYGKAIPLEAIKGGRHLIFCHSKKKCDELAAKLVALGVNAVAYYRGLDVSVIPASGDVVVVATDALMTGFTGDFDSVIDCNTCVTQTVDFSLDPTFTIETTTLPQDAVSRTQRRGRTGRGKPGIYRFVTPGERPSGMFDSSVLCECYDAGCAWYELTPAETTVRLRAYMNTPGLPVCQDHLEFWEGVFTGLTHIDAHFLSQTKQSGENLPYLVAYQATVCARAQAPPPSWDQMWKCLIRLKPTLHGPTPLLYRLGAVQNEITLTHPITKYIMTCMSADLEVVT
In the next experiment the target is T2, Protein RecA (Mycobacterium tuberculosis, UniProt P9WHJ3).
T2 sequence (P9WHJ3 whole entry): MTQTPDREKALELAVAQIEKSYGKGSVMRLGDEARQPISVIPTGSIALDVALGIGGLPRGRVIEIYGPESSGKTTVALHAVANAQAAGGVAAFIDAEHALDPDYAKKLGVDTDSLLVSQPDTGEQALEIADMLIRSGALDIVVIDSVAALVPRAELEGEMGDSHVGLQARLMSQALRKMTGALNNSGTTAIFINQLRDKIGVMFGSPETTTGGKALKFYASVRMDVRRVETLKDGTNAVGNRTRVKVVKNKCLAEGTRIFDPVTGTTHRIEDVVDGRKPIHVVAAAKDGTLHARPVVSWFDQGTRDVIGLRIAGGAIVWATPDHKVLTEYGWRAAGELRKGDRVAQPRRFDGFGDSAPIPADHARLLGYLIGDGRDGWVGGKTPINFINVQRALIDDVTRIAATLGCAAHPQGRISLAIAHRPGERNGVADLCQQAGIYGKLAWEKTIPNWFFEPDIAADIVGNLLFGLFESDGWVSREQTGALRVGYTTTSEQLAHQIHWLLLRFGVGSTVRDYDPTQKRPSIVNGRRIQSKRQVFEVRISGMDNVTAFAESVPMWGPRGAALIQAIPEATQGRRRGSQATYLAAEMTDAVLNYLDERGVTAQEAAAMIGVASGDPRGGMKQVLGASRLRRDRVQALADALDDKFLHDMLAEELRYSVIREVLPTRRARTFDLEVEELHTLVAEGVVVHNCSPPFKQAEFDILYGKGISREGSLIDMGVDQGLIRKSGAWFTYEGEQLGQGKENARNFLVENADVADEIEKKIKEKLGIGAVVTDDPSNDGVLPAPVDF
As to the kind of experiment: Fluorescence Cell-Free Homogeneous Dose Retest to Identify Inhibitors of RecA-Intein Splicing Activity. [Related pubchem assays (depositor defined):AID2097, AID2223, AID489010, AID492950]. The experiment is classed as functional.

The nature of experiment [3]: Luminescence Cell-Based Dose Retest to Confirm Inhibitors of Cancer Stem Cells. [Related pubchem assays (depositor defined):AID2717, AID2721]. To be noted: Homo sapiens. It is filed as functional.
For experiment [4], the target named is T3, Replicative DNA helicase DnaB (Mycobacterium tuberculosis, UniProt P9WMR3).
T3 sequence (P9WMR3 whole entry): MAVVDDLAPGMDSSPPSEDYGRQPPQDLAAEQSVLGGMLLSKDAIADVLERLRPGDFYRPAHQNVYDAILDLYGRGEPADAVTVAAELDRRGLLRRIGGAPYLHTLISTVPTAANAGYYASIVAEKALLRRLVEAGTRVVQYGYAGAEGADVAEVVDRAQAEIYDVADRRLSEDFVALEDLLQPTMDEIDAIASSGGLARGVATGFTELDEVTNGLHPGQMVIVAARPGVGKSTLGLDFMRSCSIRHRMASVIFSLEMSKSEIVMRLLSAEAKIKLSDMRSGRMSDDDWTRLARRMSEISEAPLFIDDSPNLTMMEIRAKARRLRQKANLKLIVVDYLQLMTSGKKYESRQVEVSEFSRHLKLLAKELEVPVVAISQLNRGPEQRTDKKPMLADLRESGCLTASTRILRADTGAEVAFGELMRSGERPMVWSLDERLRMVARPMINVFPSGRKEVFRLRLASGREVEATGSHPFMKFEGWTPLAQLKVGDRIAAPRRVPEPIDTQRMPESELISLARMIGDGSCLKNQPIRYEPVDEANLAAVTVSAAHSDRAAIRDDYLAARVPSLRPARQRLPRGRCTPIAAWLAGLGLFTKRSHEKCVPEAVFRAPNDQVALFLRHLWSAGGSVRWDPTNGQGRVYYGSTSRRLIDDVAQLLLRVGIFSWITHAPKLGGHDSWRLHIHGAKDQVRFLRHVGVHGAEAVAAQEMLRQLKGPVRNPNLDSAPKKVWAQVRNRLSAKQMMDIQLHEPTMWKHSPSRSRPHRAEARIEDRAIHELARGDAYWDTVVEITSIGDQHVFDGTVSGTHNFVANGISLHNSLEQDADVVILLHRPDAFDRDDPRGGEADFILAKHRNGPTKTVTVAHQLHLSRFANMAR
The experiment can be described thus: DnaB intein splicing inhibitors, dose response, biochemical, cell-free fluorescence (AID 449749). The experiment is classed as functional.

A short description of experiment [5]: HIV-1 Env-mediated cell fusion inhibitors, dose response, CCR5-tropic Env (AID 2279). It is filed as functional.
Experiment [6] is described as follows: A Cell Based Secondary Assay To Explore Cytotoxicity of Compounds that Sensitize Mycobacterium Tuberculosis to Beta-Lactam Antibiotics. The experiment is classed as functional.
The subject of the next experiment is HeLa. As to the kind of experiment: Cytotoxicity counterscreen assay for transcriptional activators of heat shock protein 70 (Hsp70). [Related pubchem assays: 1203, 1252 ]. The experiment is classed as functional. The conditions noted are these: Homo sapiens.
A further experiment deals with Nonstructural protein 1 (Influenza A virus, UniProt Q194T2). It is filed as functional, Influenza A virus (A/California/07/2009(H1N1)).
Nonstructural protein 1, sequence (Q194T2 whole entry): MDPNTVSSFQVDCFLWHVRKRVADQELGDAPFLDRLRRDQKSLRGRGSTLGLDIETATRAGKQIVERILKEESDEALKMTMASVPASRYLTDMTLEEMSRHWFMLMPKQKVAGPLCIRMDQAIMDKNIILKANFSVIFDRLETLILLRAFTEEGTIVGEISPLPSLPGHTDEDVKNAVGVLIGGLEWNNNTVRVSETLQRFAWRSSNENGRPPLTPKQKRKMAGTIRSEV
A short description of experiment [7]: enhancers of respiration in Yfh1-depleted yeast, dose response, Friedreich's ataxia, plus single-dose screen (AID 1465).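 Further: yeast depleted of Yfh1p frataxin homolog grown on glycerol needing respiration; WST-1 tetrazolium dye reduction as measure of cellular dehydrogenase metabolic activity.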 It is filed as functional.
Experiment [8] is described as follows: C. albicans growth with fluconazole, confirmation, fluorescence, retest (AID 2467). It is filed as functional, cell-based.
The next experiment concerns INS1. The experiment can be described thus: beta cell apoptosis inhibitors, cytokine rescue, dose response, luminescence, retest (AID 449756).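 Further: cell death triggered by IL-1 beta plus TNF-alpha plus IFN-gamma mixture; protective hits raise ATP signal compared with cytokine alone wells.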 The conditions noted are these: Rattus norvegicus. It is filed as functional, cell-based.
Experiment [9] in a line: NIH-3T3 fibroblast cytotoxicity, dose response, cytotoxicity control, cell-based, fluorescence, Alamar Blue, secondary assay (AID 2327).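 Further: NIH-3T3 mouse fibroblasts cultured with fluconazole at 8 µg/mL.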 The experiment is classed as functional.

Usually IC50 stands for the concentration at which inhibition is half-maximal. `COc1ccc(/C=N/NC(=O)CCn2c3ccccc3c3ccccc32)cc1O`: the half-inhibitory concentration (IC50) in [1] was 2.02 µM (active).
Take `Cc1ccc(C(=O)O)cc1-c1ccc(/C=C2\SC(=O)N(CC(=O)Nc3ccccc3)C2=O)o1`: the figures for the half-maximal inhibitory concentration (IC50) (in [2]; at NS3) were 2.75 µM (active) and 5.39 µM (active), respectively.
What is called EC50 is the concentration giving half of the maximal effect. Usually AC50 stands for the midpoint of the concentration-response curve, whichever way the signal moves. Broadly, the CC50 is the concentration giving 50% cytotoxicity. Turning to `Cc1nn(CCc2nn[nH]n2)c2nc(-c3ccc(C4CCCCC4)cc3)cc(C(F)(F)F)c12`, the 50% effective concentration (EC50) at Protein RecA is 38.1 µM (active). The results for the concentration at half-maximal activity (AC50) in experiment [3] and in experiment [4] were 2.14 µM (active) and 3.83 µM (active), respectively. Also, the 50% inhibitory concentration (IC50) in experiment [5] is 21.7 µM (active). In addition, in [6], the 50% cytotoxic concentration (CC50) was 34.4 µM (active).
Take `Cc1ccc(N=C(S)NC(NC(=O)c2ccccc2)C(Cl)(Cl)Cl)c(C)c1` (stereo not given): the cytotoxic concentration (CC50) in the experiment on HeLa is on record as 47 µM (not active).
`O=C(CCCn1c(=O)c2sccc2n(Cc2cc(=O)n3ccccc3n2)c1=O)NCc1ccco1`: the IC50 in “cells” was 36.6 µM (active).
With `Cc1ccc2cc(C3C(C#N)=C(N)Oc4c3ccc3cccnc43)c(O)nc2c1` (stereo not given), at Nonstructural protein 1, the IC50 was 14.3 µM (active). Further, the EC50 was > 100 µM (active) in experiment [7], > 38 µM (not active) in experiment [8] and > 150 µM (inactive) in [9]. In addition, the AC50 in the experiment with INS1 was 1.02 µM (active).
